Laboratory results reported in patent US8003096B2, “Means and methods for the recruitment and identification of stem cells” (Vlaams Interuniversitair Instituut voor Biotechnologie VZW, priority 2003, dated 2011).

Legend:
plasmin = experiment: Plasmin activity in BM plasma, chromogenic assay; format: in vivo, mouse; settings: WT mice
Description: To study the role of the plasminogen proteinase system with its plasminogen activators tPA and uPA, and active plasmin in stem/progenitor cell mobilization, mice lacking plasminogen (Plg^−/−), tPA (tPA^−/−), uPA (uPA^−/−) and both activators (tPA^−/−uPA^−/−) were used.^(17, 18) Age- and sex-matched mice were kept in IVC cages. Mobilization was induced either via a single sublethal injection i.v. of the myeloablative agent 5-fluorouracil (5-FU, 200-250 mg/kg), or via administration s.c. of recombinant human G-CSF (Filgrastim, Amgen, 200 μg/kg/d) for five consecutive days.^(12) Peripheral blood (PB) samples were obtained by retro-orbital bleeding under light anesthesia. Full blood counts were determined on the Abbott Cell Dyn 1300 hemocytometer. The number of mobilized hematopoietic progenitor cells (HPCs) in the circulation was determined via methylcellulose-based CFU-C assays (MethoCult, Stem Cell Technologies), per 10^5 peripheral blood mononuclear cells (PB MNCs).^(12) The number of mobilized hematopoietic stem cells (HSCs) in the circulation was quantified via splenic colony-forming assays (CFU-S), and evaluated for long-term engraftment via transplantation into lethally irradiated syngeneic wild-type recipients (9.5 Gy total body irradiation). […]

BM cells = experiment: FACS analysis of BM cells after 5-FU; format: in vivo, mouse; settings: for Sca-1+ progenitors in S-phase of the cell cycle: 5-FU treatment; for CD3ε+ lymphoid cell counts / Gr1+CD11b+ myeloid cell counts: day 7 after 5-FU; for BM HSCs (Sca-1+cKit+ cells) / HPCs (Sca-1+ cells): seven days after 5-FU
Source text: Murine BM cells were filtered through a 40 μm nylon mesh (Falcon) and stained with labeled anti-mouse antibodies against CD11b, Gr-1, CD3ε, CD19, Sca-1, α5β1, (BD Biosciences), cKit (eBioscience). Anti-mouse α4β1, antibodies were generated from hybridoma (PS/2; ATCC), and detected using a secondary labeled anti-rat antibody (Caltag). Mouse annexin II was detected using a goat anti-annexin II antibody (Santa Cruz), and a secondary labeled rabbit anti-goat antibody (Caltag). Mouse uPAR was detected using a rabbit anti-mouse uPAR antibody (Sier et al. (2004), Thromb. Haemost. 91:403-11), and a secondary labeled goat anti-rabbit antibody (BD Biosciences). Control stainings included matched isotype antibodies and pre-immune antibodies. Non-specific binding was prevented by addition of mouse serum (DAKO), as alternative for Fc-receptor block. For cell cycle analysis, BM cells were stained with Sca-1-FITC and treated with PI/RNAse (BD Biosciences), as previously described (Heissig et al. (2002), Cell 109:625-37). From EDTA-anti-coagulated human blood, full blood counts were performed, MNCs were prepared using Lymphoprep (Axis-Shield), counted, and 1×10^6 PB MNCs were stained with anti-human CD34 (Tebu Bio).

O=c1[nH]cc(F)c(=O)[nH]1 [5-FU, 5-fluorouracil]
plasmin activity in BM plasma (plasmin; after single i.v. bolus, N=4): 75±14 U | elevation of plasmin activity in BM plasma above baseline (plasmin; single i.v. bolus): five-fold | Sca-1+ progenitors in S-phase of the cell cycle (BM cells; Plg−/− mice): 1.2±0.6 ×10^4 per femur | CD3ε+ lymphoid cell counts (BM cells; Plg−/− mice): 67±31 ×104 per femur | Gr1+CD11b+ myeloid cell counts (BM cells; Plg−/− mice): 3±2 ×10^4 per femur | BM HSCs (Sca-1+cKit+ cells) (BM cells; Plg−/− mice): 5±1 ×10^4 per femur | HPCs (Sca-1+ cells) (BM cells; Plg−/− mice): 48±22 ×10^4 per femur | Sca-1+ progenitors in S-phase of the cell cycle (BM cells; WT mice): 8.4±0.8 ×10^4 per femur | CD3ε+ lymphoid cell counts (BM cells; WT mice): 438±122 ×104 per femur | Gr1+CD11b+ myeloid cell counts (BM cells; WT mice): 29±13 ×10^4 per femur | BM HSCs (Sca-1+cKit+ cells) (BM cells; WT mice): 42±9 ×10^4 per femur | HPCs (Sca-1+ cells) (BM cells; WT mice): 206±20 ×10^4 per femur
